From patent publication US20120277208A1 (ASTELLAS PHARMA INC., priority 2009, published 2012)

How the values were obtained:
ICR mice = experiment: Oral glucose loading test in normal mice; type: in vivo; conditions: Mus musculus, AUC lowering rate of blood glucose, immediately before to 2 hours after glucose loading, vs solvent control, 10 mg/kg orally, ICR mice fasted overnight, glucose loading after 30 minutes, read-out: Blood glucose level lowering rate (%)
Protocol: Test Example 2 Oral Glucose Loading Test in Normal Mice
The test compound was dissolved in a solvent (5% Cremophor, 5% aqueous DMSO solution), 10 mg/kg of the test compound was orally administered to ICR mice after fasting overnight, and after 30 minutes, oral glucose loading was carried out. Immediately before the administration of the test compound, immediately before the glucose loading, and 0.25, 0.5, 1, and 2 hours after the glucose loading, blood was collected and blood glucose levels were measured. An AUC lowering rate (%) of the blood glucose levels from immediately before the glucose loading to 2 hours after the glucose loading with respect to that of the solvent control was calculated.

[1] = biological target: T1, recombinant human liver type GK (GST-hGK2) (Homo sapiens, UniProt P35557); experiment: Measurement of glucokinase (GK) activation; type: biochemical; conditions: 10 min; test compound final concentration of 10 μM; 5 mM glucose; 27° C.; relative to DMSO
T1 construct: made in house; host or cells: E. coli BL21
T1 sequence (P35557 1-466 isoform P35557-2): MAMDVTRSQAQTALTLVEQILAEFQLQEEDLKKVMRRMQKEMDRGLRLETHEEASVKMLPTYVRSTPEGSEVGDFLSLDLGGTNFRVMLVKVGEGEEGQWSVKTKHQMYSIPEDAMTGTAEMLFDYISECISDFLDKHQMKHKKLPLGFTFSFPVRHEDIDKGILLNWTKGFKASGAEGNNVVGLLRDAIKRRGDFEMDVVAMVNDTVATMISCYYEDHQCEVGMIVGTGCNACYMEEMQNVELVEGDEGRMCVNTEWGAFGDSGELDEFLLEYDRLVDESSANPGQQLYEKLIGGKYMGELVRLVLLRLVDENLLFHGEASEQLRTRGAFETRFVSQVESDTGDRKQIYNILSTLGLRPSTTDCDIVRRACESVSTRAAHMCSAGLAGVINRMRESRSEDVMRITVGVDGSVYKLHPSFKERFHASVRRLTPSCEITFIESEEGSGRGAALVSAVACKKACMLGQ
Protocol: Test Example 1 Measurement of Glucokinase (GK) Activation
The present test was carried out in accordance with the method described in Science 301: 370-373, 2003 with partial modification, and is summarized as below.
First, cloning of GK (GenBank No. AK122876) was carried out. PCR was carried out using 5′-[…]-3′ (SEQ ID NO: 1) and 5′-[…]-3′ (SEQ ID NO: 2) as primers, and pME18S-FL3-Glucokinase isoform 2 as a template. The resulting reaction product was TA-cloned into a pGEM-T easy vector, and then digested with EcoRI and XhoI, and the fragment was ligated to a pGEX-5X-1 vector digested in the same manner. Using this plasmid DNA (pGEX-human Glucokinase 2), a recombinant human liver type GK (GST-hGK2) fused with GST (Glutathione S-transferase) was expressed in E. coli (strain BL21), and purified by Glutathione Sepharose.
The reaction of GK was carried out at 27° C. on a 96-well plate. First, 1 μL of a test compound diluted with dimethylsulfoxide (DMSO) (final concentration of 10 μM) was added to a 89 μL of an enzyme mixed liquid (25 mM HEPES pH 7.4, 25 mM KCl, 2 mM MgCl2, 1 mM ATP, 0.1% BSA, 1 mM DTT, 1 mM NADP (nicotinamide adenine dinucleotide phosphate), 2.5 U/mL glucose-6-phosphate dehydrogenase, GST-hGK2 adjusted to ΔODCont as described later to be about 0.05 to 0.10, all of which are final concentrations). Subsequently, 10 μL of a substrate solution (final concentration of 5 mM glucose) was added thereto to initiate the reaction. In order to quantify a final product NADPH, an absorbance at a wavelength of 340 nm was measured, and the GK activation (%) of the test compound was calculated from the increase (DOD) in the absorbance during the first 10 minutes after the initiation of the reaction, using the following formula.
GK activation (%)=[(ΔODTest)−(ΔODCont)]/(ΔODCont)×100
ΔODTest: ΔOD at the test compound
Further, Ex indicates Example compound Number.

| SMILES | activation at 10 µM [1] [%] | inhibition in vivo at 10 mg/kg (ICR mice) [%] |
| --- | --- | --- |
| COC[C@H](C)Oc1cc(Oc2ccc(-c3nc(C(N)=O)no3)nc2)cc(C(=O)Nc2ccn(C)n2)c1 [Ex 1] | 295 | 37 |
| CC(C)Oc1cc(Oc2ccc(-c3nc(C(N)=O)no3)nc2)cc(C(=O)Nc2ccn(C)n2)c1 [Ex 9] | 319 | 46 |
| CC(C)Oc1cc(Oc2ccc(-c3nc(C(=O)N(C)C)no3)nc2)cc(C(=O)Nc2ccn(C)n2)c1 [Ex 10] | 380 | 61 |
| COC[C@H](C)Oc1cc(Oc2cnc(N(CC3CC3)C(=O)CN(C)C)cn2)cc(C(=O)Nc2ccn(C)n2)c1 [Ex 29] | 287 | 49 |
| CC(C)Oc1cc(Oc2cnc(-c3noc(C(=O)N(C)C)n3)cn2)cc(C(=O)Nc2ccn(C)n2)c1 [Example 67] | 498 | 57 |
| CC(C)Oc1cc(Oc2cnc(N(CC3CC3)C(=O)N3CCNC3=O)cn2)cc(C(=O)Nc2ccn(C)n2)c1 [Example 74] | 298 | 45 |
| CC(=O)N(CC1CC1)c1cc(Oc2cnc(N(CC3CC3)C(=O)C3CCOCC3)cn2)cc(C(=O)Nc2ccn(C)n2)c1 [Example 101] | 345 | 48 |
| COCCOCC(=O)N(CC1CC1)c1cnc(Oc2cc(OC(C)C)cc(C(=O)Nc3ccn(C)n3)c2)cn1 [Example 119] | 376 | 40 |
| CNC(=O)c1noc(-c2cnc(Oc3cc(OC(C)C)cc(C(=O)Nc4ccn(C)n4)c3)cn2)n1 [Example 138] | 316 | 61 |
| C[C@@H](CO)Oc1cc(Oc2ccc(-c3nc(C(N)=O)no3)nc2)cc(C(=O)Nc2ccn(C)n2)c1 [Example 162] | 306 | 25 |

The next lines start with results.

| activation at 10 µM [1] [%] | SMILES | inhibition in vivo at 10 mg/kg (ICR mice) [%] |
| --- | --- | --- |
| 338 | CNC(=O)c1noc(-c2ccc(Oc3cc(OC(C)C)cc(C(=O)Nc4ccn(C)n4)c3)cn2)n1 [Ex 2] | 59 |
| 380 | CNC(=O)c1nnc(-c2ccc(Oc3cc(OC(C)C)cc(C(=O)Nc4ccn(C)n4)c3)cn2)o1 [Ex 3] | 64 |
| 347 | CC(C)Oc1cc(Oc2cnc(N(CC3CC3)C(=O)C3CCOCC3)cn2)cc(C(=O)Nc2ccn(C)n2)c1 [Ex 23] | 52 |
| 269 | C[C@@H](CO)Oc1cc(Oc2cnc(N(CC3CC3)C(=O)C3CCOCC3)cn2)cc(C(=O)Nc2ccn(C)n2)c1 [Ex 24] | 49 |
| 498 | CC(C)Oc1cc(Oc2cnc(-c3nnc(C(=O)N(C)C)o3)cn2)cc(C(=O)Nc2ccn(C)n2)c1 [Example 98] | 54 |
| 502 | COC[C@H](C)Oc1cc(Oc2ccc(-c3noc(C(=O)N(C)C)n3)nc2)cc(C(=O)Nc2ccn(C)n2)c1 [Example 130] | 65 |
| 237 | COCCOCC(=O)N(CC1CC1)c1cnc(Oc2cc(O[C@@H](C)CO)cc(C(=O)Nc3ccn(C)n3)c2)cn1 [Example 156, 3-[(5-{(cyclopropylmethyl)[(2-methoxyethoxy)acetyl]amino}pyrazin-2-yl)oxy]-5-{[(2S)-1-hydroxypropan-2-yl]oxy}-N-(1-methyl-1H-pyrazol-3-yl)benzamide] | 18 |
| 237 | C[C@@H](CO)Oc1cc(Oc2cnc(N(CC3CC3)C(=O)[C@H]3CCCO3)cn2)cc(C(=O)Nc2ccn(C)n2)c1 [Example 158] | 29 |
